According to paper PMC3576085 (The Journal of Biological Chemistry, 2012):

Target: T1, CBM65B (EcCel5A) ([Eubacterium] cellulosolvens, UniProt Q3LHN3)
T1 sequence (Q3LHN3 581-713): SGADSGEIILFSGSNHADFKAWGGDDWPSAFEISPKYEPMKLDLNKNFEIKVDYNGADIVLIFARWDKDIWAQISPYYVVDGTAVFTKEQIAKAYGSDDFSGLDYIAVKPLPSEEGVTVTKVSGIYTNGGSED
Assay: ITC
Format: binding
Conditions: 50 mM Na-HEPES pH 7.5, 25 °C; n 1

Ka: 2.3 (±0.2) x 10^3
SMILES: OC[C@H]1O[C@@H](O[C@H]2[C@H](O)[C@@H](O)[C@H](O[C@H]3[C@H](O)[C@@H](O)[C@H](O[C@H]4[C@H](O)[C@@H](O)[C@H](O[C@H]5[C@H](O)[C@@H](O)[C@H](O[C@H]6[C@H](O)[C@@H](O)C(O)O[C@@H]6CO)O[C@@H]5CO)O[C@@H]4CO)O[C@@H]3CO)O[C@@H]2CO)[C@H](O)[C@@H](O)[C@@H]1O (stereo partly shown) [C6, cellohexaose]
